Read-outs that look alike come from different tables or passages of the source.
Legend:
HepG2-A16-CD81EGFP cells = experiment: cells; details: Homo sapiens; for IC50: HepG2, read-out: Tox IC50; for inhibition at 50 µM: HepG2, read-out: Tox max inhibition (%) @ 50 uM
[1] = tested on: Plasmodium berghei (Pb-Luc) exoerythrocytic-stage parasites; experiment: microbe, parasite or virus in culture
[2] = biological target: QuantiLum Recombinant Luciferase (Photinus pyralis, UniProt P08659); experiment: Bioluminescence quantification of compound luciferase inhibition; details: for Emax: read-out: LucInhib max inhibition
[3] = HepG2, read-out: HepG2 Tox% @ 50 uM rep1
[4] = HepG2, read-out: HepG2 Tox% @ 50 uM rep2
[5] = read-out: Inhibition% @ 50 uM rep1
[6] = read-out: Inhibition% @ 50 uM rep2
[7] = read-out: PbLuc IC50, dose response, 1/3 dilutions, max conc. 10 or 50 uM, unit inferred
[8] = read-out: PbLuc max inhibition (%) @ 50 uM
[9] = read-out: PbLuc IC50, dose response, unit inferred

QuantiLum Recombinant Luciferase, sequence (P08659 whole entry): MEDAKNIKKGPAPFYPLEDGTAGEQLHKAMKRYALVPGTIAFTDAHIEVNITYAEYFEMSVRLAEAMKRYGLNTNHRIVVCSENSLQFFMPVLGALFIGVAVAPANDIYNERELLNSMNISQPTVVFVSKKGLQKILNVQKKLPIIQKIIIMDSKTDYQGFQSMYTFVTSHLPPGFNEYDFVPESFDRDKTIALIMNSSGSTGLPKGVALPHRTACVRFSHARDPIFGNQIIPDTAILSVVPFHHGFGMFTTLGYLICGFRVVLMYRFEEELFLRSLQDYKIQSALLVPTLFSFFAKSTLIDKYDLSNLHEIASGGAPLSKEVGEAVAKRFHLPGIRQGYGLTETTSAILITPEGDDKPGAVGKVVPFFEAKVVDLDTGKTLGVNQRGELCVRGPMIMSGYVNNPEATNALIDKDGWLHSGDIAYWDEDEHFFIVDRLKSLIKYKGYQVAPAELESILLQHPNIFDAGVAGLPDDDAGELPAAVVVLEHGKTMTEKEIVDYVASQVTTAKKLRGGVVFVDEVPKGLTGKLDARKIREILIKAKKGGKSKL

Question: How did the cytotoxicity at 50 µM (HepG2-A16-CD81EGFP cells; [3]) turn out when `CCc1ccc(Nc2cc(C)nc3nc(C)nn23)cc1` [MMV007374] was run?
Answer: Its cytotoxicity at 50 µM is 11%.

Question: And the cytotoxicity at 50 µM (HepG2-A16-CD81EGFP cells; [4])?
Answer: The cytotoxicity at 50 µM was 15%.

Question: And the IC50 (HepG2-A16-CD81EGFP cells)?
Answer: Its IC50 is over 50 µM.

Question: And the inhibition at 50 µM (HepG2-A16-CD81EGFP cells)?
Answer: Its inhibition at 50 µM is 9%.

Question: And the inhibition at 50 µM [1, 5]?
Answer: Its inhibition at 50 µM is 92%.

Question: What about the inhibition at 50 µM [1, 6] of the same compound?
Answer: The inhibition at 50 µM was 91%.

Question: And the IC50 [1, 7]?
Answer: The IC50 was 4.8 µM.

Question: And the inhibition at 50 µM [1, 8]?
Answer: The inhibition at 50 µM was 101%.

Question: What about the IC50 [2] of the same compound?
Answer: The IC50 was over 50 µM.

Question: And the Emax [2]?
Answer: The Emax was 30%.

Question: How did the cytotoxicity at 50 µM (HepG2-A16-CD81EGFP cells; [3]) turn out when `O=C(NCc1ccco1)C1CCN(S(=O)(=O)c2ccc(Cl)cc2)CC1` [MMV006188] was run?
Answer: Its cytotoxicity at 50 µM is 22%.

Question: What about the cytotoxicity at 50 µM (HepG2-A16-CD81EGFP cells; [4]) of the same compound?
Answer: The cytotoxicity at 50 µM was 28%.

Question: And the IC50 (HepG2-A16-CD81EGFP cells)?
Answer: Its IC50 is over 50 µM.

Question: What about the inhibition at 50 µM (HepG2-A16-CD81EGFP cells) of the same compound?
Answer: Its inhibition at 50 µM is 28%.

Question: And the inhibition at 50 µM [1, 5]?
Answer: Its inhibition at 50 µM is 102%.

Question: And the inhibition at 50 µM [1, 6]?
Answer: The inhibition at 50 µM was 102%.

Question: And the IC50 [1, 7]?
Answer: The IC50 was 0.707 µM.

Question: What about the inhibition at 50 µM [1, 8] of the same compound?
Answer: Its inhibition at 50 µM is 106%.

Question: What about the IC50 [2] of the same compound?
Answer: Its IC50 is over 50 µM.

Question: And the Emax [2]?
Answer: Its Emax is 22%.

Question: How did the cytotoxicity at 50 µM (HepG2-A16-CD81EGFP cells; [3]) turn out when `Cc1ccc(N2C(=O)C3C(C2=O)C2(c4ccccc4)C(=O)C3(c3ccccc3)C(c3ccccc3)=C2c2ccccc2)cc1` (stereo not shown) [MMV666062] was run?
Answer: Its cytotoxicity at 50 µM is 1.06%.

Question: What about the cytotoxicity at 50 µM (HepG2-A16-CD81EGFP cells; [4]) of the same compound?
Answer: The cytotoxicity at 50 µM was 8.55%.

Question: What about the IC50 (HepG2-A16-CD81EGFP cells) of the same compound?
Answer: Its IC50 is over 50 µM.

Question: What about the inhibition at 50 µM (HepG2-A16-CD81EGFP cells) of the same compound?
Answer: The inhibition at 50 µM was 9%.

Question: And the inhibition at 50 µM [1, 5]?
Answer: Its inhibition at 50 µM is 91%.

Question: What about the inhibition at 50 µM [1, 6] of the same compound?
Answer: Its inhibition at 50 µM is 100%.

Question: What about the IC50 [1, 7] of the same compound?
Answer: Its IC50 is 6.54 µM.

Question: What about the inhibition at 50 µM [1, 8] of the same compound?
Answer: The inhibition at 50 µM was 102%.

Question: What about the IC50 [2] of the same compound?
Answer: Its IC50 is over 50 µM.

Question: What about the Emax [2] of the same compound?
Answer: The Emax was 23%.

Question: For `COc1ccc(-c2nc(N3CCN(C(=O)C4CCCCC4)CC3)c3c4c(sc3n2)CCCC4)cc1` [MMV396594], which cytotoxicity at 50 µM (HepG2-A16-CD81EGFP cells; [3]) is on record?
Answer: Its cytotoxicity at 50 µM is 2.59%.

Question: What about the IC50 (HepG2-A16-CD81EGFP cells) of the same compound?
Answer: The IC50 was over 50 µM.

Question: And the inhibition at 50 µM (HepG2-A16-CD81EGFP cells)?
Answer: The inhibition at 50 µM was 37%.

Question: And the inhibition at 50 µM [1, 5]?
Answer: The inhibition at 50 µM was 98%.

Question: What about the inhibition at 50 µM [1, 6] of the same compound?
Answer: The inhibition at 50 µM was 98%.

Question: What about the IC50 [1, 9] of the same compound?
Answer: The IC50 was 39.9 µM.

Question: And the inhibition at 50 µM [1, 8]?
Answer: Its inhibition at 50 µM is 69%.

Question: And the IC50 [2]?
Answer: The IC50 was over 50 µM.

Question: And the Emax [2]?
Answer: Its Emax is 44%.

Question: `CCOC(=O)c1cnc2c(CC)cccc2c1O` [MMV498479] was tested. Which cytotoxicity at 50 µM (HepG2-A16-CD81EGFP cells; [3]) did it give?
Answer: Its cytotoxicity at 50 µM is -10%.

Question: What about the IC50 (HepG2-A16-CD81EGFP cells) of the same compound?
Answer: The IC50 was over 50 µM.

Question: What about the inhibition at 50 µM (HepG2-A16-CD81EGFP cells) of the same compound?
Answer: Its inhibition at 50 µM is 1%.

Question: And the inhibition at 50 µM [1, 5]?
Answer: The inhibition at 50 µM was 103%.

Question: What about the inhibition at 50 µM [1, 6] of the same compound?
Answer: Its inhibition at 50 µM is 103%.

Question: And the IC50 [1, 7]?
Answer: Its IC50 is 1.67 µM.

Question: What about the inhibition at 50 µM [1, 8] of the same compound?
Answer: The inhibition at 50 µM was 106%.

Question: What about the IC50 [2] of the same compound?
Answer: The IC50 was over 50 µM.

Question: And the Emax [2]?
Answer: The Emax was 19%.

Question: For `FC(F)(F)c1ccc(Nc2nnnc3ccccc23)cc1` [MMV665935], which cytotoxicity at 50 µM (HepG2-A16-CD81EGFP cells; [3]) is on record?
Answer: Its cytotoxicity at 50 µM is 19%.

Question: And the cytotoxicity at 50 µM (HepG2-A16-CD81EGFP cells; [4])?
Answer: The cytotoxicity at 50 µM was -5%.

Question: And the IC50 (HepG2-A16-CD81EGFP cells)?
Answer: Its IC50 is over 50 µM.

Question: And the inhibition at 50 µM (HepG2-A16-CD81EGFP cells)?
Answer: Its inhibition at 50 µM is 7%.

Question: What about the inhibition at 50 µM [1, 5] of the same compound?
Answer: The inhibition at 50 µM was 102%.

Question: What about the inhibition at 50 µM [1, 6] of the same compound?
Answer: Its inhibition at 50 µM is 101%.

Question: And the IC50 [1, 7]?
Answer: Its IC50 is 0.738 µM.

Question: What about the inhibition at 50 µM [1, 8] of the same compound?
Answer: Its inhibition at 50 µM is 105%.

Question: What about the IC50 [2] of the same compound?
Answer: The IC50 was over 50 µM.

Question: What about the Emax [2] of the same compound?
Answer: The Emax was 25%.

Question: How did the cytotoxicity at 50 µM (HepG2-A16-CD81EGFP cells; [3]) turn out when `COc1ccc(C)c2sc(N(Cc3cccnc3)C(=O)c3ccc(C#N)cc3)nc12` [MMV001241] was run?
Answer: The cytotoxicity at 50 µM was 18%.

Question: What about the IC50 (HepG2-A16-CD81EGFP cells) of the same compound?
Answer: The IC50 was over 50 µM.

Question: And the inhibition at 50 µM (HepG2-A16-CD81EGFP cells)?
Answer: Its inhibition at 50 µM is 22%.

Question: What about the inhibition at 50 µM [1, 5] of the same compound?
Answer: The inhibition at 50 µM was 100%.

Question: And the inhibition at 50 µM [1, 6]?
Answer: The inhibition at 50 µM was 102%.

Question: What about the IC50 [1, 9] of the same compound?
Answer: The IC50 was 21.5 µM.

Question: And the inhibition at 50 µM [1, 8]?
Answer: The inhibition at 50 µM was 101%.

Question: What about the IC50 [2] of the same compound?
Answer: Its IC50 is over 50 µM.

Question: And the Emax [2]?
Answer: The Emax was 7%.

Question: Which results are given for `CC(C)(C)c1ccc(C(=O)Nc2c3c(nn2-c2cccc(Cl)c2)CSC3)cc1` [MMV666123]?
Answer: cytotoxicity at 50 µM (HepG2-A16-CD81EGFP cells; [3]): 18%; IC50 (HepG2-A16-CD81EGFP cells): > 50 µM; inhibition at 50 µM (HepG2-A16-CD81EGFP cells): 10%; inhibition at 50 µM [1, 5]: 101%; inhibition at 50 µM [1, 6]: 102%; IC50 [1, 7]: 10.1 µM; inhibition at 50 µM [1, 8]: 103%; IC50 [2]: > 50 µM; Emax [2]: 23%

Question: `CN1CCN(c2nc(Nc3ccc(O)cc3)nc3ccccc23)CC1` [MMV000986] was tested. Which cytotoxicity at 50 µM (HepG2-A16-CD81EGFP cells; [3]) did it give?
Answer: The cytotoxicity at 50 µM was 25%.

Question: What about the IC50 (HepG2-A16-CD81EGFP cells) of the same compound?
Answer: Its IC50 is over 50 µM.

Question: And the inhibition at 50 µM (HepG2-A16-CD81EGFP cells)?
Answer: Its inhibition at 50 µM is 7%.

Question: What about the inhibition at 50 µM [1, 5] of the same compound?
Answer: Its inhibition at 50 µM is 86%.

Question: And the inhibition at 50 µM [1, 6]?
Answer: The inhibition at 50 µM was 90%.

Question: What about the IC50 [1, 7] of the same compound?
Answer: Its IC50 is 20.4 µM.

Question: And the inhibition at 50 µM [1, 8]?
Answer: The inhibition at 50 µM was 94%.

Question: What about the IC50 [2] of the same compound?
Answer: Its IC50 is 21.9 µM.

Question: What about the Emax [2] of the same compound?
Answer: Its Emax is 69%.

Question: Which results are given for `N=c1c2ccccc2nnn1-c1cccc(C(F)(F)F)c1` [MMV665923]?
Answer: cytotoxicity at 50 µM (HepG2-A16-CD81EGFP cells; [3]): -7.5%; IC50 (HepG2-A16-CD81EGFP cells): > 50 µM; inhibition at 50 µM (HepG2-A16-CD81EGFP cells): 26%; inhibition at 50 µM [1, 5]: 99%; inhibition at 50 µM [1, 6]: 99%; IC50 [1, 7]: 0.789 µM; inhibition at 50 µM [1, 8]: 104%; IC50 [2]: > 50 µM; Emax [2]: 26%

Source: paper PMC4890880 (ACS infectious diseases, 2016)
